Measured values from patent US6482809B1, “Use of tiludronic acid and derivatives thereof in poultry for the preparation of a medicinal product for preventing and treating osteoporosis” (Ceva Sante Animale, priority 2000, dated 2002).

What was measured:
[1] = tested on: trabecular bone of laying hens; details: cited from earlier work
[2] = tested on: medullary bone of laying hens; details: 18 weeks after the onset of laying; treated before the onset of laying; cited from earlier work
[3] = tested on: egg production of laying hens; details: administered during laying; decrease or even stoppage of laying as a function of the dose; cited from earlier work
[4] = tested on: osteoporosis in menopausal women; details: 50 or 200 mg per person orally; cited from earlier work
[5] = tested on: medullary bone of the tarsometatarsal bone of hens; experiment: Histomorphometric examination of medullary bone volume of the tarsometatarsal bone after a single subcutaneous administration; format: in vivo, hens of ISA Brown strain
Method: (§1) A total number of 216 hens of ISA Brown strain between 15 and 17 weeks old was divided into 3 groups for the purpose of evaluating the effects on bone of a single subcutaneous administration of tiludronic acid, in the form of its sodium salt (disodium tiludronate).
(§2) Three doses were compared: 0, 1 and 10 mg/kg (corresponding amount of tiludronic acid/kg). The tiludronic acid was administered in the form of injectable aqueous solutions such that the volume injected per bird was 1 ml per kilo of live weight. The tiludronic acid solutions were thus concentrated to 0.1% and 1% for the doses of 1 and 10 mg/kg, respectively. The control group received a placebo corresponding to water for an injectable preparation. The injections were performed subcutaneously in the region above the superficial pectoral muscle.
(§3) The hens were housed in individual cages in the same building at controlled temperature and hygrometry. Each animal was identified by a number carried on a ring attached to a wing. They received the same standard feed for laying hens, freely throughout the duration of the study. The drinking water was also distributed freely.
(§4) The average age of onset of laying for the hens in this strain is 20 weeks. Consequently, the average delay between the treatment and the age of onset of laying had to be from 3 to 5 weeks. The duration of the study was 40 weeks. At the end of the study, the hens were 55 weeks old.
(§5) Half of the total number was sacrificed on laying the first egg, in order to carry out a histomorphometric examination performed on a decalcified section of the proximal region of one of the tarsometatarsal bones in order to measure the trabecular and medullary bone volumes.
(§6) The other half of the total number of hens was monitored up to 55 weeks of age (i.e. after about 34 weeks of laying), at which point all the remaining animals were sacrificed. The same bone examination was carried out on these animals as on the hens sacrificed after laying the first egg.
(§7) The bone parameters were compared by means of a one-factor variance analysis (dose factor).
(§8) The histomorphometric examination carried out allows the changes in the structure of the bone to be assessed.

[6] = tested on: trabecular bone of the tarsometatarsal bone of hens; experiment: Histomorphometric examination of trabecular bone volume of the tarsometatarsal bone after a single subcutaneous administration; format: in vivo, hens of ISA Brown strain
Method: as §1, §2, §3, §4, §5, §6, §7, §8

[7] = at 55 weeks old, 1 mg/kg single subcutaneous injection
[8] = at 55 weeks old, 10 mg/kg single subcutaneous injection

Compound | Trabecular bone volume higher than that of the control hens ([1]; after laying for 18 weeks, 0.01 mg/kg s.c., 6 administrations (total 0.06 mg/kg) from 14 weeks old) | Trabecular bone volume higher on average in the treated hens than in the control hens ([1]; onset of laying, 0.01 mg/kg subcutaneously, repeated before laying) | Medullary bone volume less than that of the control animals [2] | Effect on egg production [3] | Efficacy in osteoporosis in menopausal women [4] | Average medullary bone volumes, comparison between the groups ([5]; at 55 weeks old, 0, 1 and 10 mg/kg) | Volume of medullary bone of the tarsometatarsal bone [5, 7] | Medullary bone volume higher than that in the control animals ([5]; at 55 weeks old, 10 mg/kg) | Volume of medullary bone of the tarsometatarsal bone [5, 8] | Medullary bone volumes, comparison between the groups ([5]; onset of laying, 0, 1 and 10 mg/kg) | Trabecular bone loss during laying ([6]; 1 mg/kg, onset of laying to 55 weeks old) | Trabecular volume versus controls ([6]; at 55 weeks of age, 10 mg/kg) | Trabecular bone volume of the tarsometatarsal bone [6, 7] | Trabecular bone volume of the tarsometatarsal bone [6, 8] | Variation of trabecular bone volume between the two periods ([6]; onset of laying to 55 weeks old, 1 mg/kg) | Variation of trabecular bone volume between the two periods ([6]; onset of laying to 55 weeks old, 10 mg/kg) | Trabecular bone volume of the tarsometatarsal bone ([6]; onset of laying, 1 mg/kg single subcutaneous injection at 15-17 weeks old) | Gain in trabecular bone volume compared with the controls ([6]; onset of laying, 10 mg/kg) | Trabecular bone volume of the tarsometatarsal bone ([6]; onset of laying, 10 mg/kg single subcutaneous injection at 15-17 weeks old)
NCCCC(O)(P(=O)(O)O)P(=O)(O)O [alendronic acid] | about 35% | ≤ 30% | about 20% | harmful effect on egg production |  |  |  |  |  |  |  |  |  |  |  |  |  |  | 
tiludronic acid |  |  |  |  | not demonstrated their efficacy | not significantly different between the groups | 2.75 ± 2.72% | 20% | 3.53 ± 3.04% | does not reveal any significant difference between the groups | no trabecular bone loss took place during laying | significantly higher than that of the controls | 11.3 ± 2.5% | 12.0 ± 2.0% | +4% | −12% | 10.9 ± 2.9% | 12% | 13.7 ± 3.3%
